Results taken from patent EP2698384A1, “Detection of synthetic cannabinoids” (priority 2012, dated 2014).
Where two headings read alike, the source gives them in different places.

Key:
Type in all cases: binding, sheep
[1] = tested on: Antibody to Immunogen III
Description: (§1) The wells of an enhanced binding 96 well polystyrene microtiter plate were coated with IgG fraction of antiserum raised to Immunogen VI, diluted in 10mM Tris, pH8.5 (125µl/well). The appropriate antibody coating dilution was determined using standard ELISA checkerboard techniques. The plate was incubated overnight at 4°C, washed 4 times over 10 minutes with Tris buffered saline containing Tween 20 (TBST) and tapped dry. Standard solutions of RCS-4 were prepared in TBST at 0, 0.3125, 0.625, 1.25, 2.5, 5, 10 and 20ng/ml, and 50µl of each was added to the appropriate wells (see figure 1). 75µl of conjugate (appropriate hapten-HRP) diluted in Tris buffer (pH 7.2) containing EDTA, D-mannitol, sucrose, thimerosal and BSA, was added to each of the wells. The appropriate dilution of conjugate was also determined using standard ELISA checkerboard techniques. The plate was incubated at 25°C for 1 hour. Excess unbound conjugate was removed by washing 6 times over a 10 minute period with TBST. 125µl oftetramethylbenzidine (TMB) substrate solution was added to each well of the plate that was then incubated for 20 minutes in the dark at room temperature. The reaction was terminated by addition of 125µl 0.2M H2SO4 to each well. The absorbance was then measured at 450nm using a microtiter plate reader. The data are inputted to a computer program called 'KC Junior'. It is a 4 parameter fit curve and allow the calculatation of concentrations between the standard runs. This program is used to calculate the IC50s by dividing the 0ng/ml OD value by 2 and obtaining the concentration value from the curve for this OD.
In a similar manner to that described above, the wells of a 96-well microtiter plate were coated with the IgG fraction of the antiserum raised to Immunogens I, II or III. Standard solutions (JWH-250 for Immunogen III) were applied at 0, 0.625, 1.25, 2.5, 5, 10, 20 and 40ng/ml and conjugate was employed as detection reagent.
(§2) The data set our in Tables 3 and 4 are generated using antibodies raised against the indicated Immunogens in a competitive binding assay with the indicated tracers, using the indicated standards: Table 2
(§3) In order to determine the specificity of the competitive ELISAs, standard solutions of a range of structurally similar synthetic cannabinoids and their metabolites were prepared in TBST. Using the calibration curves generated and employing a single level of cross reactants, these were used to determine the cross-reactivity of each immunoassay with these substances. Table 4: Cross reactivity of the competitive ELISAs for synthetic cannabinoids and their metabolites

Antibody to Immunogen V = tested on: Antibody to Immunogen V
Description: as §1
In a similar manner to that described above, the wells of a 96-well microtiter plate were coated with the IgG fraction of the antiserum raised to Immunogens IV, V, VII or VIII. Standard solutions (RCS-8 for Immunogen V) were prepared in TBST at 0, 1.25, 2.5, 5, 10, 20, 40 and 80ng/ml and conjugate was employed as detection reagent.
as §2, §3

Antibody to Immunogen VI = tested on: Antibody to Immunogen VI
Description: as §1, §2, §3

[2] = Cross-reactants at 100 ng/ml, 1000ng/ml, single level of cross reactants

Molecule	%B/B0 [1, 2]	%B/B0 (Antibody to Immunogen V; [2])	%B/B0 (Antibody to Immunogen VI; [2])	other results
CC(O)CCCn1cc(C(=O)c2cccc3ccccc23)c2ccccc21 (racemic)	86.69%	75.59%	76.16%	
O=C(O)Cc1c[nH]c2ccc(O)cc12 [5-hydroxyindole-3-acetic acid (5-HIAA), 5-hydroxyindole-3-acetic acid]	90.54%	92.46%	95.75%	
O=C(c1cccc2ccccc12)c1cn(CCCC(O)CF)c2ccccc12 (centres unmarked) [AM-2201 N-(4-hydroxypentyl) metabolite]	68.76%	50.40%	77.68%	
CN1CCCCC1Cn1cc(C(=O)c2cccc3ccccc23)c2ccccc21 (centres unmarked) [AM-1220]	99.70%	63.74%	81.44%	
(-)-11-nor-9-Carboxy-delta9-THC				%B/B0 [1]: 89.45%; %B/B0 (Antibody to Immunogen V): 89.31%; %B/B0 (Antibody to Immunogen VI): 96.32%
COc1ccccc1CC(=O)c1cn(CCCCCO)c2ccccc12 [JWH 250 N-(5-hydroxypentyl) metabo lite]	48.72%	6.88%	78.58%	
CCCCCCC(C)(C)C1=CC(=O)C(C2CCCC(O)C2)=CC1=O (centres unmarked) [CP-47,497-para-quinone analogue]	96.58%	72.98%	94.38%	
COc1ccccc1CC(=O)c1cn(CCC2CCCCC2)c2ccccc12 [RCS-8 (SR-18)]	64.72%	8.34%	85.46%	IC50 (Antibody to Immunogen V; standard RCS-8, standard concentration which produces 50% B/B0): 7.23 ng/mL; %B/B0 (Antibody to Immunogen V; standard curve, RCS-8 1.25 ng/ml): 82%; %B/B0 (Antibody to Immunogen V; standard curve, RCS-8 2.5 ng/ml): 71%; %B/B0 (Antibody to Immunogen V; standard curve, RCS-8 5 ng/ml): 57%; %B/B0 (Antibody to Immunogen V; standard curve, RCS-8 10 ng/ml): 43%; %B/B0 (Antibody to Immunogen V; standard curve, RCS-8 20 ng/ml): 34%; %B/B0 (Antibody to Immunogen V; standard curve, RCS-8 40 ng/ml): 25%; %B/B0 (Antibody to Immunogen V; standard curve, RCS-8 80 ng/ml): 19%
CC(C)CCn1cc(C(=O)c2cccc3ccccc23)c2ccccc21 [JWH 018 N-(3-methylbutyl) isomer (JWH-073 3-methylbutyl homologue)]	82.58%	63.42%	66.63%	
CCCCCn1cc(C(=O)c2ccc(CC)c3ccccc23)c2ccccc21 [JWH-210]	69.64%	70.20%	72.07%	
CCCCCn1cc(C(=O)Cc2ccc(Cl)cc2)c2ccccc21 [JWH-206 (JWH-203 4-chloro isomer)]	26.33%	51.00%	78.35%	
CCCCCn1c(C)c(C(=O)c2ccc(OC)c3ccccc23)c2ccccc21 [JWH-098]	74.71%	81.09%	78.96%	
CCCCn1cc(C(=O)c2cccc3ccccc23)c2ccccc21 [JWH-073]	81.25%	66.65%	74.80%	
CCCCCn1cc(C(=O)c2c(CC)ccc3ccccc23)c2ccccc21 [JWH-210 2-ethylnaphthyl isomer]	85.02%	85.10%	89.90%	
CCCCCn1cc(C(=O)c2ccc(Cl)c3ccccc23)c2ccccc21 [JWH-398]	71.37%	65.76%	72.30%	
CCCCCn1cc(C(=O)Cc2ccccc2C)c2ccccc21 [JWH-251]	17.28%	13.61%	79.72%	
CCCCn1cc(C(=O)c2ccc(C)c3ccccc23)c2ccccc21 [JWH-073 4-methylnaphthyl analogue]	78.03%	65.84%	70.97%	

Molecule	%B/B0 [1, 2]	%B/B0 (Antibody to Immunogen V; [2])	%B/B0 (Antibody to Immunogen VI; [2])	other results
O=C(c1cccc2ccccc12)c1cn(CCCCO)c2ccccc12 [JWH-073 N-(4-hydroxybutyl) metabolite]	87.63%	63.73%	70.57%	
CCCCCn1cc(C(=O)c2cccc3ccccc23)c2ccccc21 [JWH-018]	78.39%	78.01%	82.47%	
CCCCCn1cc(C(=O)c2cccc3ccccc23)c2c(O)cccc21	82.22%	83.42%	92.00%	
CCCCCCn1cc(C(=O)c2cccc3ccccc23)c2cc(O)ccc21	95.38%	79.13%	89.29%	
CCCCCn1cc(C(=O)c2cccc3ccccc23)c2ccc(OC)cc21 [JWH-018 6-methoxyindole analogue]	85.67%	73.60%	86.92%	
CCCCCn1cc(C(=O)c2ccc(CCC)c3ccccc23)c2ccccc21 [JWH-182]	76.14%	82.38%	85.69%	
CCCCCn1cc(C(=O)c2ccc3ccccc3c2)c2ccccc21 [JWH 018 2'-naphthyl isomer]	76.35%	88.32%	44.48%	
CC(O)CCn1cc(C(=O)c2cccc3ccccc23)c2ccccc21 (centres unmarked) [JWH-073 N-(3-hydroxybutyl) metabolite]	94.05%	63.79%	72.55%	
CCCCCn1cc(C(=O)Cc2ccccc2OC)c2cc(O)ccc21 [JWH 250 5-hydroxyindole metabolite]	65.83%	37.39%	91.28%	
CCCCCn1cc(C(=O)C23CC4CC(CC(C4)C2)C3)c2ccccc21 [JWH 018 adamantyl analog]	84.69%	86.65%	93.91%	
O=C(c1ccccc1I)c1cn(CCCCCF)c2ccccc12 [AM-694]	72.80%	64.61%	70.77%	
COc1ccc(C(=O)c2c(C)n(CCN3CCOCC3)c3ccccc23)cc1 [WIN-48,098 (other name Pravadoline), Pravadoline]	89.21%	77.87%	23.84%	
O=C(O)CCCn1cc(C(=O)c2cccc3ccccc23)c2ccccc21 [JWH-073 N-butanoic acid metabolite]	97.45%	70.75%	76.27%	
COc1cccc(CC(=O)c2cn(CCC3CCCCC3)c3ccccc23)c1 [RCS-8 3-methoxy isomer]	69.47%	38.01%	79.95%	
O=C(c1cccc2ccccc12)c1cn(CCN2CCOCC2)c2ccccc12 [WIN 55,225 (other name JWH-200)]	88.39%	49.45%	71.03%	
O=C(c1cccc2ccccc12)c1cn(CCN2CCOCC2)c2cc(O)ccc12 [JWH-200 6-hydroxyindole metabolite]	95.45%	69.91%	88.68%	
